# Test results: patent publication US8563715B2, “Pyrimidine derivative having cell protecting effect and uses thereof” (Zenyaku Kogyo Kabushikikaisha, priority 2008, dated 2013)
row,Structure (SMILES),melting point [°C]
1,"c1ccc(N2CCN(c3nc(N4CCOCC4)cc(N4CCOCC4)n3)CC2)cc1 [Compound 1, 4,6-dimorpholino-2-(4-phenylpiperazin-1-yl)pyrimidine]",182 to 184
2,"c1c(N2CCOCC2)nc(N2CCOCC2)nc1N1CCN(C2CCCCC2)CC1 [Compound 43, 4-[4-(4-cyclohexyl)piperazin-1-yl]-2,6-dimorpholinopyrimidine]",144 to 147
3,"Fc1c(N2CCNCC2)nc(N2CCN(c3ccccc3Cl)CC2)nc1N1CCOCC1 [Compound 189, 2-[4-(2-chlorophenyl)piperazin-1-yl]-5-fluoro-4-morpholino-6-(1-piperazinyl)pyrimidine]",70 to 71
4,"CC(=O)N1CCN(c2cc(N3CCOCC3)nc(N3CCN(c4ccccc4)CC3)n2)CC1 [Compound 54, 4-(4-acetylpiperazin-1-yl)-6-morpholino-2-(4-phenylpiperazin-1-yl)pyrimidine]",171 to 172
5,"COc1ccccc1N1CCN(c2nc(N(C)C)nc(N3CCOCC3)c2F)CC1 [Compound 111, 2-dimethylamino-5-fluoro-4-[4-(2-methoxyphenyl)piperazin-1-yl]-6-morpholinopyrimidine]",108
6,"Fc1ccc(N2CCN(c3cc(N4CCOCC4)nc(N4CCOCC4)n3)CC2)cc1 [Compound 21, 4-[4-(4-fluorophenyl)piperazin-1-yl]-2,6-dimorpholinopyrimidine]",215 to 218
7,"c1ccc(C2CN(c3nc(N4CCOCC4)cc(N4CCOCC4)n3)CCN2)cc1 (centres unmarked) [Compound 16, 4,6-dimorpholino-2-(3-phenylpiperazin-1-yl)pyrimidine]",100 to 104
8,"CC(C)(C)OC(=O)N1CCN(c2nc(N3CCN(c4ccccc4Cl)CC3)nc(N3CCOCC3)c2F)CC1 [Compound 188, 4-(4-tert-butoxycarbonylpiperazin-1-yl)-2-[4-(2-chlorophenyl)piperazin-1-yl]-5-fluoro-6-morpholinopyrimidine]",75 to 76
9,"O=CN1CCN(c2cc(N3CCOCC3)nc(N3CCN(c4ccccc4)CC3)n2)CC1 [Compound 53, 4-(4-formylpiperazin-1-yl)-6-morpholino-2-(4-phenylpiperazin-1-yl)pyrimidine]",171 to 172
10,"Cc1cccc(N2CCN(c3nc(N4CCN(C(=O)OC(C)(C)C)CC4)nc(N4CCOCC4)c3F)CC2)c1C [Compound 177, 2-(4-tert-butoxycarbonylpiperazin-1-yl)-5-fluoro-4-morpholino-6-[4-(2,3-xylyl)piperazin-1-yl]pyrimidine]",81 to 82
11,"Fc1c(N2CCOCC2)nc(N2CCN(c3ncccn3)CC2)nc1N1CCOCC1 [Compound 92, 5-fluoro-4,6-dimorpholino-2-[4-(pyrimidin-2-yl)piperazin-1-yl]pyrimidine]",163 to 165
12,"Fc1ccc(N2CCN(c3nc(N4CCOCC4)cc(N4CCOCC4)n3)CC2)cc1 [Compound 20, 2-[4-(4-fluorophenyl)piperazin-1-yl]-4,6-dimorpholinopyrimidine]",196 to 199
13,"Cc1cccc(N2CCN(c3nc(N4CCOCC4)c(F)c(N4CCN(C)CC4)n3)CC2)c1C [Compound 184, 5-fluoro-4-(4-methylpiperazin-1-yl)-6-morpholino-2-[4-(2,3-xylyl)piperazin-1-yl]pyrimidine]",67 to 68
14,"c1ccc(Cc2c(N3CCOCC3)nc(N3CCN(c4ccccc4)CC3)nc2N2CCOCC2)cc1 [Compound 48, 5-benzyl-4,6-dimorpholino-2-(4-phenylpiperazin-1-yl)pyrimidine]",141 to 144
15,"Fc1ccccc1N1CCN(c2cc(N3CCOCC3)nc(N3CCN(c4ccccc4)CC3)n2)CC1 [Compound 58, 4-[4-(2-fluorophenyl)piperazin-1-yl]-6-morpholino-2-(4-phenylpiperazin-1-yl)pyrimidine]",90 to 91
16,"Cc1cccc(N2CCN(c3nc(N4CCOCC4)nc(N4CCN(C)CC4)c3F)CC2)c1C [Compound 186, 5-fluoro-4-(4-methylpiperazin-1-yl)-2-morpholino-6-[4-(2,3-xylyl)piperazin-1-yl]-pyrimidine]",67 to 68
17,"CN(C)c1nc(N2CCOCC2)c(F)c(N2CCN(c3ccccc3F)CC2)n1 [Compound 112, 2-dimethylamino-5-fluoro-4-[4-(2-fluorophenyl)piperazin-1-yl]-6-morpholinopyrimidine]",95
18,"Cc1ccccc1N1CCN(c2nc(N3CCOCC3)c(F)c(N3CCN(c4ccccc4C)CC3)n2)CC1 [Compound 129, 2,4-bis[4-(2-methylphenyl)piperazin-1-yl]-5-fluoro-6-morpholinopyrimidine]",106 to 107
19,"Cc1cccc(N2CCN(c3nc(N4CCN(Cc5ccc(NC(=O)OC(C)(C)C)cc5)CC4)nc(N4CCOCC4)c3F)CC2)c1C [Compound 193, 2-[4-(4-tert-butoxycarbonylaminobenzyl)piperazin-1-yl]-5-fluoro-4-morpholino-6-[4-(2,3-xylyl)piperazin-1-yl]pyrimidine]",104 to 105
20,"CN1CCN(c2nc(N3CCN(c4ccccc4F)CC3)nc(N3CCOCC3)c2F)CC1 [Compound 185, 5-fluoro-2-[4-(2-fluorophenyl)piperazin-1-yl]-4-(4-methylpiperazin-1-yl)-6-morpholinopyrimidine]",128 to 129

# Next, values leading:
row,melting point [°C],Structure (SMILES)
1,229 to 230,"CC(=O)Nc1c(N2CCOCC2)nc(N2CCN(c3ccccc3)CC2)nc1N1CCOCC1 [Compound 77, 5-acetylamino-4,6-dimorpholino-2-(4-phenylpiperazin-1-yl)pyrimidine]"
2,128 to 131,"OC1(c2ccccc2)CCN(c2nc(N3CCOCC3)nc(N3CCOCC3)c2F)CC1 [Compound 117, 5-fluoro-4-(4-hydroxy-4-phenylpiperidin-1-yl)-2,6-dimorpholinopyrimidine]"
3,195 to 198,"Fc1ccc(N2CCN(c3nc(N4CCOCC4)c(F)c(N4CCOCC4)n3)CC2)cc1 [Compound 96, 5-fluoro-2-[4-(4-fluorophenyl)piperazin-1-yl]-4,6-dimorpholinopyrimidine]"
4,162 to 163,"O=Cc1c(N2CCOCC2)nc(N2CCN(c3ccccc3)CC2)nc1N1CCOCC1 [Compound 142, 5-formyl-4,6-dimorpholino-2-(4-phenylpiperazin-1-yl)pyrimidine]"
5,157 to 160,"C1=C(c2ccccc2)CCN(c2nc(N3CCOCC3)cc(N3CCOCC3)n2)C1 [Compound 40, 4,6-dimorpholino-2-[4-phenyl (1,2,5,6-tetrahydropyridin-1-yl)]pyrimidine]"
6,216 to 220,"Nc1c(N2CCOCC2)nc(/C=C/c2ccncc2)nc1N1CCOCC1 [Compound 134, 5-amino-4,6-dimorpholino-2-[2-(pyridin-4-yl)vinyl]pyrimidine]"
7,72,"Cc1ccccc1N1CCN(c2nc(N3CCOCC3)c(F)c(N3CCOCC3)n2)CC1 [Compound 104, 5-fluoro-2-[4-(2-methylphenyl)piperazin-1-yl]-4,6-dimorpholinopyrimidine]"
8,163 to 165,"c1ccc(-c2c(N3CCOCC3)nc(N3CCN(c4ccccc4)CC3)nc2N2CCOCC2)cc1 [Compound 46, 4,6-dimorpholino-5-phenyl-2-(4-phenylpiperazin-1-yl)pyrimidine]"
9,118,"Fc1c(N2CCOCC2)nc(N2CCN(c3ccccc3Cl)CC2)nc1N1CCOCC1 [Compound 102, 2-[4-(2-chlorophenyl)piperazin-1-yl]-5-fluoro-4,6-dimorpholinopyrimidine]"
10,171 to 174,"Fc1ccc(N2CCN(c3nc(N4CCOCC4)nc(N4CCOCC4)c3F)CC2)cc1 [Compound 97, 5-fluoro-4-[4-(4-fluorophenyl)piperazin-1-yl]-2,6-dimorpholinopyrimidine]"
11,99 to 102,"Cc1c(N2CCOCC2)nc(N2CCN(c3ccccc3)CC2)nc1N1CCOCC1 [Compound 44, 5-methyl-4,6-dimorpholino-2-(4-phenylpiperazin-1-yl)pyrimidine]"
12,151 to 154,"Cc1ccccc1/C=C/c1nc(N2CCOCC2)c(N)c(N2CCOCC2)n1 [Compound 137, 5-amino-2-[2-(2-methylphenyl)vinyl]-4,6-dimorpholinopyrimidine]"
13,215,"Fc1c(N2CCOCC2)nc(N2CCN(c3ccc(Cl)cc3)CC2)nc1N1CCOCC1 [Compound 109, 2-[4-(4-chlorophenyl)piperazin-1-yl]-5-fluoro-4,6-dimorpholinopyrimidine]"
14,145,"CCOc1ccccc1N1CCN(c2nc(N3CCOCC3)c(F)c(N3CCOCC3)n2)CC1 [Compound 103, 2-[4-(2-ethoxyphenyl)piperazin-1-yl]-5-fluoro-4,6-dimorpholinopyrimidine]"
15,194 to 198,"c1ccc2c(c1)CN(c1nc(N3CCOCC3)cc(N3CCOCC3)n1)C2 [Compound 10, 2-(isoindolin-2-yl)-4,6-dimorpholinopyrimidine]"
16,201 to 205,"CC(=O)C1(c2ccccc2)CCN(c2nc(N3CCOCC3)c(F)c(N3CCOCC3)n2)CC1 [Compound 118, 2-(4-acetyl-4-phenylpiperidin-1-yl)-5-fluoro-4,6-dimorpholinopyrimidine]"
17,201 to 203,"Cc1ccc(N2CCN(c3nc(N4CCOCC4)c(F)c(N4CCOCC4)n3)CC2)cc1 [Compound 98, 5-fluoro-2-[4-(4-methylphenyl)piperazin-1-yl]-4,6-dimorpholinopyrimidine]"
18,141,"Oc1ccc(N2CCN(c3nc(N4CCOCC4)c(F)c(N4CCOCC4)n3)CC2)cc1 [Compound 107, 5-fluoro-2-[4-(4-hydroxyphenyl)piperazin-1-yl]-4,6-dimorpholinopyrimidine]"
19,208 to 210,"CN(C)c1c(N2CCOCC2)nc(N2CCN(c3ccccc3)CC2)nc1N1CCOCC1 [Compound 141, 5-dimethylamino-4,6-dimorpholino-2-(4-phenylpiperazin-1-yl)pyrimidine]"
20,100 to 104,"CCNc1c(N2CCOCC2)nc(N2CCN(c3ccccc3)CC2)nc1N1CCOCC1 [Compound 80, 5-ethylamino-4,6-dimorpholino-2-(4-phenylpiperazin-1-yl)pyrimidine]"
21,130 to 133,"COc1ccc(/C=C/c2nc(N(C)C)c(N)c(N3CCOCC3)n2)cc1 [Compound 138, 5-amino-4-dimethylamino-2-[2-(4-methoxyphenyl)vinyl]-6-morpholinopyrimidine]"
